System: MSCs positive for CD73, CD90, CD105, CD44
Assay: Expression analysis of MSC surface antigens (flow cytometry)
Type: cell-based, human
Conditions: cultured 2 weeks in the presence of rh Activin A; FIG. 6A
Experimental: Cells were isolated by treatment with TrypLE (Thermo Fisher Scientific, MA, USA) for 5 minutes and stained with antibodies as described in Tsuji K. et al, Cell Transplant. 2017, 26(6), pp. 1089 to 1102. The surface antigen positive cell fraction was then measured using FACS Verse Flow Cytometer (BD Biosciences). Note that fluorochrome-conjugated antibodies for the analysis of cell surface markers (CD73, CD90, CD105, and CD44) were purchased from BD Biosciences (NJ).
To evaluate the effect of activin on the stemness of MSCs, they were cultured for 2 weeks in the presence of rh Activin A, and changes in the expression level of MSC surface antigens were examined by flow cytometric analysis.

Activin A: homodimer of two inhibin βA chains; recombinant human protein purchased from R&D Systems
cell population positive for MSC-related antigens (CD73, CD90, CD105, CD44): no change
